Experiments:
[1] = biological target: 5'-AMP-activated protein kinase catalytic subunit alpha-2 (Homo sapiens) (UniProt P54646); assay: Selectivity interaction (KinomeScan (DiscoverX)) EUB0000607a PRKAA2; details: at 10 µM
[2] = biological target: Casein kinase I isoform delta (Homo sapiens, UniProt P48730); assay: Selectivity interaction (Kinase panel (Invitrogen)) EUB0000639a CSNK1D; details: at 200 nM
[3] = biological target: T1, Interleukin-1 receptor-associated kinase 4 (Homo sapiens) (UniProt Q9NWZ3); assay: Selectivity interaction (Kinase panel (Invitrogen)) EUB0000639a IRAK4; details: at 200 nM
T1 sequence (whole entry): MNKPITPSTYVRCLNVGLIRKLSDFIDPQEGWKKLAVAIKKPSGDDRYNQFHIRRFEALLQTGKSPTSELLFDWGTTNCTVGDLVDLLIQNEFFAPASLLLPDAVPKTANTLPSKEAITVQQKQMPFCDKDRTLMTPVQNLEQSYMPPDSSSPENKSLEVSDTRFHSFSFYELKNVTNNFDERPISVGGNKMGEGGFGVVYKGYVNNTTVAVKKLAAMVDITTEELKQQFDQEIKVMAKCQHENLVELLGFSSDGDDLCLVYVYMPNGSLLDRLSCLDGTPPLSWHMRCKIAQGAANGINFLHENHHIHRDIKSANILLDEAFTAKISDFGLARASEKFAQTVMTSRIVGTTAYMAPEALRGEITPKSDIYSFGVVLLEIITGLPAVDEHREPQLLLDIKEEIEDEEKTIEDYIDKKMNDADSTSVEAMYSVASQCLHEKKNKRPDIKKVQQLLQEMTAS

[4] = biological target: T2, Dual specificity mitogen-activated protein kinase kinase 6 (Homo sapiens) (UniProt P52564); assay: Selectivity interaction (ActivX KiNativ screen (kinase selectivity in THP-1 cell lysates)) EUB0000639a MAP2K6; assay type: subcellular; details: lysate, at 0.04 µM
T2 sequence (whole entry): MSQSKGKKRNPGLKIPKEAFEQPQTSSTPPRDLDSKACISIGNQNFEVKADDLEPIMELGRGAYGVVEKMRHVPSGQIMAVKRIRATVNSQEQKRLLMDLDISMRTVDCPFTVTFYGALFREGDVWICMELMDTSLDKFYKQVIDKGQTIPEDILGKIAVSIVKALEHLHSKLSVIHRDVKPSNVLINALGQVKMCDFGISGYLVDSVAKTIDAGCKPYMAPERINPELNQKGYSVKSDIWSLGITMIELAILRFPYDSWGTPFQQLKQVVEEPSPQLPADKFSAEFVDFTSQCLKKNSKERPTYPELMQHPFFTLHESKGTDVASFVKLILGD

[5] = biological target: T3, Scaffold protein ILK (Homo sapiens) (UniProt Q13418); assay: Selectivity interaction (ActivX KiNativ screen (kinase selectivity in THP-1 cell lysates)) EUB0000639a ILK; assay type: subcellular; details: lysate, at 1 µM
T3 sequence (whole entry): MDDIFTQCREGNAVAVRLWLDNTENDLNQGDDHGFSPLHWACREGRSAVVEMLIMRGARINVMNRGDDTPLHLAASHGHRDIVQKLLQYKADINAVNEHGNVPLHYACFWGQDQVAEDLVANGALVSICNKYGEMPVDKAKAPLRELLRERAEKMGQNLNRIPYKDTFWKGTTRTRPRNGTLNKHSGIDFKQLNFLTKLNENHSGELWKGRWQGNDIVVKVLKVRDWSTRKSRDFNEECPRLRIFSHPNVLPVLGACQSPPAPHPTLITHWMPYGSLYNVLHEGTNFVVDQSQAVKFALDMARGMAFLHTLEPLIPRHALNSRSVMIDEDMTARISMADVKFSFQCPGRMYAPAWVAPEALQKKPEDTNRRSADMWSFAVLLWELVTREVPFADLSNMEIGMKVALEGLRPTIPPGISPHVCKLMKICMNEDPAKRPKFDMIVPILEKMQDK

[6] = biological target: Tyrosine-protein kinase FRK (Homo sapiens) (UniProt P42685); assay: Selectivity interaction (KinomeScan (DiscoverX)) EUB0000695a FRK; details: at 100 nM
[7] = biological target: Serine/threonine-protein kinase 32C (Homo sapiens) (UniProt Q86UX6); assay: Selectivity interaction (KinomeScan (DiscoverX)) EUB0000595a STK32C; details: at 10 µM
[8] = biological target: Serine/threonine-protein kinase mTOR (Homo sapiens, UniProt P42345); assay: Selectivity interaction (KinomeScan (DiscoverX)) EUB0001079a MTOR; details: at 1 µM
[9] = biological target: Histone-lysine N-methyltransferase SETD2 (Homo sapiens) (UniProt Q9BYW2); details: at 1 µM
[10] = biological target: Platelet-derived growth factor receptor beta (Homo sapiens, UniProt P09619); assay: Selectivity interaction (KinomeScan (DiscoverX)) EUB0000618a PDGFRB; details: at 10 µM
[11] = biological target: Homeodomain-interacting protein kinase 3 (Homo sapiens, UniProt Q9H422); assay: Selectivity interaction (KinomeScan (DiscoverX)) EUB0001619a HIPK3; details: at 1 µM
Homeodomain-interacting protein kinase 3, sequence (Q9H422 whole entry, looked up): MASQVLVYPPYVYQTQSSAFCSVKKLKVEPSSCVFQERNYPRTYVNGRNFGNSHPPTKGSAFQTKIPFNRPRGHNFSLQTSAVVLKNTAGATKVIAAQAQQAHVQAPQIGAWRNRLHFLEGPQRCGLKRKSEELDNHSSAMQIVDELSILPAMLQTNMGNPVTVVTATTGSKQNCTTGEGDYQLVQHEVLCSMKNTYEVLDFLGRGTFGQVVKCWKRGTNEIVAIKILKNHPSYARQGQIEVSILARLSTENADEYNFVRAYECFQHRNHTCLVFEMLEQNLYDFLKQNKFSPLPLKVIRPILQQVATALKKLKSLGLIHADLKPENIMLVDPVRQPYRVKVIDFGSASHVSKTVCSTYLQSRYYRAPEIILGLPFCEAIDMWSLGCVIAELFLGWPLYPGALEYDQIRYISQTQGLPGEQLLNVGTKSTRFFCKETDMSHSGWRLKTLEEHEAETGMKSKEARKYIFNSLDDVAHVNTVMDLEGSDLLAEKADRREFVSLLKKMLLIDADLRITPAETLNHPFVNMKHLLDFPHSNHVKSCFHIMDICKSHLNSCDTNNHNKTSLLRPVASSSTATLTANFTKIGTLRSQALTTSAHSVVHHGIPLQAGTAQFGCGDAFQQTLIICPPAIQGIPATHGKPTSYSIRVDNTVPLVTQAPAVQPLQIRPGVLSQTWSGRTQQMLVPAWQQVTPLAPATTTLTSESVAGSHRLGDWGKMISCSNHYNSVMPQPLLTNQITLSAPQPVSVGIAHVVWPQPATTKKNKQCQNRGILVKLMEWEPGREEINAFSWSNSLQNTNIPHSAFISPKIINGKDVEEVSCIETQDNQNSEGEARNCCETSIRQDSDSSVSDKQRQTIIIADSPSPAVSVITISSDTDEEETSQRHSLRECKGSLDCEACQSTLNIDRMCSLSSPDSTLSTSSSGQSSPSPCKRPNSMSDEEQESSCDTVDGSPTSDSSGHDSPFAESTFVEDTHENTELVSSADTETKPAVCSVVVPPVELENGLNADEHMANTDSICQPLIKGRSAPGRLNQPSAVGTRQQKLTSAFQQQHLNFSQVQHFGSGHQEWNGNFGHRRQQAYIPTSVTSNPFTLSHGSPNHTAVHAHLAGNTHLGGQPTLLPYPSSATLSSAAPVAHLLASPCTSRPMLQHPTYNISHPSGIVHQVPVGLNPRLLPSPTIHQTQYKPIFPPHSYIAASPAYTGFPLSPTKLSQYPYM

Casein kinase I isoform delta, sequence (P48730 whole entry, looked up, canonical isoform): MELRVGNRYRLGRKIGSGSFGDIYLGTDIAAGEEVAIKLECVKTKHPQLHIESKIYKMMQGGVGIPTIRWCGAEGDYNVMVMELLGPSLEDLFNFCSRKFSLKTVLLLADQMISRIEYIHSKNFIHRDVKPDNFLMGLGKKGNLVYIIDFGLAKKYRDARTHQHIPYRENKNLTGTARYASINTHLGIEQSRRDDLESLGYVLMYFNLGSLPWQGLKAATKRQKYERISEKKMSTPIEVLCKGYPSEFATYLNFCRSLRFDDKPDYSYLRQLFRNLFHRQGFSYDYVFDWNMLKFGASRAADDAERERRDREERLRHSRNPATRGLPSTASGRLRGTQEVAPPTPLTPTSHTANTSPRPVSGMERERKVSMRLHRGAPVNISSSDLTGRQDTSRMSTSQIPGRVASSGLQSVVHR
Histone-lysine N-methyltransferase SETD2 (Homo sapiens), sequence (Q9BYW2 whole entry): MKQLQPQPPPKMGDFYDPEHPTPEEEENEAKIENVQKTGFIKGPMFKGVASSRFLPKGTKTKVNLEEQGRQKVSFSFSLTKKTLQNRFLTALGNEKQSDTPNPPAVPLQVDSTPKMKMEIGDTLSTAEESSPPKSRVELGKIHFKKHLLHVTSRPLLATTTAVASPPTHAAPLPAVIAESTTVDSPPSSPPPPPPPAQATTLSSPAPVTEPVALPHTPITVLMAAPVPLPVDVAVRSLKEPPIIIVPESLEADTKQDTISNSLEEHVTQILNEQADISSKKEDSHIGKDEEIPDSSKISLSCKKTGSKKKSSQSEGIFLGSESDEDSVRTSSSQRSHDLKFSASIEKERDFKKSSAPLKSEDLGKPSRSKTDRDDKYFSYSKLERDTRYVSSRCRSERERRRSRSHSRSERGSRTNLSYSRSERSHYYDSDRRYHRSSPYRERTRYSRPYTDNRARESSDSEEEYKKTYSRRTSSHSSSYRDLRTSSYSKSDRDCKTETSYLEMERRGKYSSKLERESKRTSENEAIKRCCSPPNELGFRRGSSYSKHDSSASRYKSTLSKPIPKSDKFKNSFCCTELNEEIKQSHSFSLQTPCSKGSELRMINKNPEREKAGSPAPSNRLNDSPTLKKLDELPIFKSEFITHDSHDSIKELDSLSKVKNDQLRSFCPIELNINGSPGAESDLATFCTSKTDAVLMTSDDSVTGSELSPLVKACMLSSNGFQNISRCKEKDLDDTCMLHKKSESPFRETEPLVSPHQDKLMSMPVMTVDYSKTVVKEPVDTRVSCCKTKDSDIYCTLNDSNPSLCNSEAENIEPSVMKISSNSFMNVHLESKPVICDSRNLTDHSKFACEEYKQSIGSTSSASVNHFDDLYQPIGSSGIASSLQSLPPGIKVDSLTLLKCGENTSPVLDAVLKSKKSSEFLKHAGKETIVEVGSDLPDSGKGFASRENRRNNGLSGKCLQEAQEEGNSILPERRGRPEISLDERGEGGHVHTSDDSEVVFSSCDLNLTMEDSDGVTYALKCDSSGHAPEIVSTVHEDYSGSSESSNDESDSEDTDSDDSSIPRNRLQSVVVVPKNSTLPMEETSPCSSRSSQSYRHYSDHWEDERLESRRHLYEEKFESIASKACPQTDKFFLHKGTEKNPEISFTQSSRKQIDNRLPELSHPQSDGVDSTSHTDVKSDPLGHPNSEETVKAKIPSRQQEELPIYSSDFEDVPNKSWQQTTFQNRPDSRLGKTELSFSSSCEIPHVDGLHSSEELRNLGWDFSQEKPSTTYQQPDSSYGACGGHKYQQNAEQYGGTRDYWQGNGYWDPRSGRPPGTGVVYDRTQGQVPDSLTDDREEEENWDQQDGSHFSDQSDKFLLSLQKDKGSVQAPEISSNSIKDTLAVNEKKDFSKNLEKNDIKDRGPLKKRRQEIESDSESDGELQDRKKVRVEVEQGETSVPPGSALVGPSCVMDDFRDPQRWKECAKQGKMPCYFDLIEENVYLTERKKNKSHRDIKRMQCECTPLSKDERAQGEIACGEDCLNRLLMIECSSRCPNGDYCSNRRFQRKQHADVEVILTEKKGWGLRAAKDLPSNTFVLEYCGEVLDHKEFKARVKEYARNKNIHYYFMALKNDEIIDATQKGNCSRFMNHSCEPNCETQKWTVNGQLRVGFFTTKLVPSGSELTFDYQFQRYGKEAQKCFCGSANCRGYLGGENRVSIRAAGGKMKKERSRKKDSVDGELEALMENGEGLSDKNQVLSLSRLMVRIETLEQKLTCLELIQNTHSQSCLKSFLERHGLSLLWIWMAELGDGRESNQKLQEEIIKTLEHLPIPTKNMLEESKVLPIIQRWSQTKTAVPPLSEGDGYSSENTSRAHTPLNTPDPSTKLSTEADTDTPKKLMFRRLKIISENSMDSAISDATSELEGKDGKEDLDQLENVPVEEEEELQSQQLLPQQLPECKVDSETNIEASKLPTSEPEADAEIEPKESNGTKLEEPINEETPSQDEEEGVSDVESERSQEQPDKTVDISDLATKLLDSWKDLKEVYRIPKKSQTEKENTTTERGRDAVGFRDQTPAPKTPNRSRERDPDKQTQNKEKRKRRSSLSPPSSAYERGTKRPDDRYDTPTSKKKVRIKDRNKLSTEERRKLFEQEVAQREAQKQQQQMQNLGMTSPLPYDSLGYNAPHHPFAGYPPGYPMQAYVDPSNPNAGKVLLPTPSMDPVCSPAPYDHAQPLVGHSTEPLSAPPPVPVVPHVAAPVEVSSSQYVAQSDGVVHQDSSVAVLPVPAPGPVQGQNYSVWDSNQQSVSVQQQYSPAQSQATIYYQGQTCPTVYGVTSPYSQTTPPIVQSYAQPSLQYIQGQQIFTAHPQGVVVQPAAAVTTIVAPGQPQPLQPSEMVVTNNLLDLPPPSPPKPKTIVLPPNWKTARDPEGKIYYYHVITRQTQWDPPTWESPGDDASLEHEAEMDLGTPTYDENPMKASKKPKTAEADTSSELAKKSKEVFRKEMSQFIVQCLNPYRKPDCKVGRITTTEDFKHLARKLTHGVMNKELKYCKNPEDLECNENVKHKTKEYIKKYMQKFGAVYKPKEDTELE
5'-AMP-activated protein kinase catalytic subunit alpha-2 (Homo sapiens), sequence (P54646 whole entry, looked up, canonical isoform): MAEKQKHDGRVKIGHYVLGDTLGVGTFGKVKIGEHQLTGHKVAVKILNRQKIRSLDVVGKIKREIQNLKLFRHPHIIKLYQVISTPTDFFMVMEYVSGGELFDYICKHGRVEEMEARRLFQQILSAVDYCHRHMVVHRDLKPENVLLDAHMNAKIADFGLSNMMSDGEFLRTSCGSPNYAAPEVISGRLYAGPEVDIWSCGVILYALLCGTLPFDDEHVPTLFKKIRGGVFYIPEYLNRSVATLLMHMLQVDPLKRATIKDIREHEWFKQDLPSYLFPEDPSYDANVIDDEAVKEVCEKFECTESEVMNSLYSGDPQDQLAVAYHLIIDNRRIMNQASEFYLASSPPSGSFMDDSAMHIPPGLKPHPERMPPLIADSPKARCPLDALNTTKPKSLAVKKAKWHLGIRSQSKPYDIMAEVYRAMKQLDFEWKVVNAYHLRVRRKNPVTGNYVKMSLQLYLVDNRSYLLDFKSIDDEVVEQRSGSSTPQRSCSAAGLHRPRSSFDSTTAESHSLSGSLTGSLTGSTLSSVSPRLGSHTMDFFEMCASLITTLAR

CNC(=O)Nc1ccc(-c2nc(N3CC4CCC(C3)O4)c3cnn(C4CCC5(CC4)OCCO5)c3n2)cc1
% of control [1]: 93%

CC[C@@H]1[C@H](F)C(=O)N[C@@H]1COc1nccc2cc(C(N)=O)c(OC)cc12 [ZIMLOVISERTIB]
% of inhibition [2]: 52.2% | % of inhibition [3]: 106% | % of inhibition [4]: 4.7% | % of inhibition [5]: -17.5%

Cc1cc(F)c(C(=O)Nc2cccc(-c3nncn3C(C)C)n2)cc1-n1cnc(C2CC2)c1
% of control [6]: 100%

COCC(=O)NC/C=C/c1ccc2ncnc(Nc3ccc(Oc4ccc(C)nc4)c(C)c3)c2c1 [CP-724714]
% of control [7]: 86%

Nc1cnc(N2CCc3cc(S(=O)(=O)Nc4c(F)cc(Cl)cc4F)cc(N4CCCC4=O)c32)nc1 [TP-020n]
% of control [8]: 100%

CNCCN1CCC(c2cc(CN(C)C(=O)c3cccc(Oc4ccccc4)c3)ccn2)CC1
% activity [9]: > 90%

O[C@H]1CC[C@H](Nc2ncc3nc(Nc4c(F)cc(F)cc4F)n([C@H]4CCOC4)c3n2)CC1
% of control [10]: 64%

N#Cc1cccc(-c2c[nH]c3ncnc(N4CCOCC4)c23)c1
% of control [11]: 47%

— ChEMBL document CHEMBL5465560, “Selectivity Literature for EUbOPEN Chemogenomic Library” (2024)
